Data reported in patent US9301951B2 (Ardelyx, Inc., priority 2010, dated 2016).

Tests used:
[1] = tested on: NaPi2b; test: Competition with phosphate: Pi uptake assay repeated at 2.1 vs 0.1 mM phosphate; type: cell-based; settings: potency at 2.1 vs 0.1 mM phosphate
From the text: In certain preferred embodiments, the phosphate transport inhibitors of the present invention are not competitive inhibitors with respect to phosphate of Na/phosphate co-transport. In certain other preferred embodiments, the phosphate transport inhibitors of the invention are non-competitive inhibitors. Non-competitive inhibitors maintain their degree of inhibition irrespective of the local phosphate concentration. This feature is an important aspect in providing an efficient blockade of intestinal transport in postprandial state, where the local concentration of dietary phosphate can attain concentration as high as 10 mM. It is believed that competitive inhibitors are too sensitive to local phosphate concentration and unable to block phosphate uptake following a high phosphorus meal. Various methods are available for determining whether a phosphate transport inhibitor is non-competitive or competitive. For example, a phosphate uptake assay can be performed and the IC50 values for a compound at different phosphate concentrations can be determined (e.g., “Enzyme kinetics”, I. Segel, 1975, John-Wiley & Sons, p. 123). IC50 values for non-competitive inhibitors will remain the same or similar with respect to the phosphate concentration, whereas IC50 values for competitive inhibitors will increase (i.e. lose potency) as phosphate concentration increases. […]

[2] = tested on: Sprague-Dawley rats; test: In vivo bolus phosphorus challenge (serum phosphate elevation); settings: rat; oral; drug dose 30; phosphate bolus 15 min after compound; serum 30 min post bolus
Protocol: By pretreating animals with a low phosphorus diet followed by the subsequent dosing of a phosphorus bolus, serum phosphorus levels were monitored after 30 minutes as a surrogate for intestinal phosphorus absorption. […] The in vivo bolus phosphorus challenge model used here mimics this model in rats.
Male, 7-week-old Sprague-Dawley rats (Charles-River laboratories international, Hollister, Calif.) were allowed to acclimatize for a minimum of 3 days before switching to a synthetic low-phosphorus diet (TD.85010, Harlan Teklad, Madison, Wis.) which contains 0.1% phosphorus and 0.6% calcium. At day 5, testing compounds or vehicle alone (as indicated) were orally administered at the indicated dose in a volume of 5 ml/kg, followed by a bolus gavage of monobasic sodium phosphate (1 mmol in 1 ml) 15 min after compound dosing. Serum was collected via retroorbital bleeding 30 min post phosphate bolus and phosphate levels were determined utilizing an ACE ALERA blood chemistry analyzer (Alfa Wassermann Diagnostic Technologies, West Caldwell, N.J.).
The extent of inhibition by test compounds on the elevation of serum phosphate levels in response to the bolus of phosphorus is shown in Table 12 (data are expressed as % Inhibition, with 6-10 animals per data point). The differences between groups were evaluated by one-way analysis of variance with Dunnett's post hoc tests.

[3] = Stability of compounds in simulated gastric fluid (SGF); type: in vitro ADME; settings: simulated gastric fluid (USP, 3 mg/mL pepsin), 1-20 μM, incubation time 6 hr, relative to t=0
Protocol: (§1) Test compounds were incubated at 1-20 μM in simulated gastric fluid (SGF; standard USP solution with 3 mg/mL pepsin) or simulated intestinal fluid (SIF; standard USP solution with 3 mg/mL pancreatin) for 3 hr or 6 hr. HPLC-UV or HPLC-MS were used to determine test compound levels using peak area %. Results (Table 14) were reported as the percentage of test compound remaining after incubation in a given condition relative to test compound present at t=0 in the same condition.

[4] = Stability of compounds in simulated intestinal fluid (SIF); type: in vitro ADME; settings: simulated intestinal fluid (USP, 3 mg/mL pancreatin), 1-20 μM, incubation time 6 hr, relative to t=0
Protocol: as §1

% remaining, SGF [3] [%] | % remaining, SIF [4] [%] | Structure (SMILES) | Competitive with respect to Pi? [1] | % Inhibition of Serum P elevation [2]
 |  | O=C(O)CCSCc1cccc(C(=O)Nc2ccc(N3CCCCC3)cc2-c2cc(C(=O)NCc3cccc(C(F)(F)F)c3)ccn2)c1 [Example 1.1, 3-(3-((2-(4-((3-(trifluoromethyl)benzyl)carbamoyl)pyridin-2-yl)-4-(piperidin-1-yl)phenyl)carbamoyl)-benzylthio)propanoic acid] | No | 20-30%
>80 | 80 | CCN(CC)c1ccc(NC(=O)c2cccc(C(=O)N(C)CCN3CCOCC3)c2)c(-c2cc(C(=O)NCc3cccc(C(F)(F)F)c3)ccn2)c1 [Example 25, N1-(4-(Diethylamino)-2-(4-((3-(trifluoromethyl)benzyl)carbamoyl)pyridin-2-yl)phenyl)-N3-methyl-N3-(2-morpholinoethyl)isophthalamide] |  | 
